Laboratory results taken from ChEMBL document CHEMBL1150938, “Recent natural products based drug development: a pharmaceutical industry perspective” (J Nat Prod, 1998).

Experiments:
[1] = tested on: Homo sapiens; test: Inhibition of fractional cholesterol absorption in normolipidemic human at 300 mg administered twice daily for 2 weeks; format: functional; set-up: scale not given: the % may be the effect or the level left
[2] = tested on: Homo sapiens; test: Reduction in serum LDL-cholesterol level in normolipidemic human at 300 mg administered twice daily for 2 weeks; format: functional; set-up: scale not given: the % may be the effect or the level left

C[C@@H]1CC[C@@]2(OC1)O[C@H]1C[C@H]3[C@@H]4CC[C@H]5C[C@@H](O[C@@H]6O[C@H](CO)[C@@H](O[C@@H]7O[C@H](CO)[C@@H](O)[C@H](O)[C@H]7O)[C@H](O)[C@H]6O)CC[C@]5(C)[C@H]4C(=O)C[C@]3(C)[C@H]1[C@@H]2C [PAMAQUESIDE]
Activity [1]: 35% | Activity [2]: 10%
